Measurements reported in patent US8470828B2, “Anellated pyridine compounds” (Hoffmann-La Roche Inc., priority 2010, dated 2013).

Legend:
human D2 receptor = target: T1, human D2 receptor (Homo sapiens, UniProt P14416); experiment: Radioligand binding to cloned human D2 receptor expressed in HEK-293 EBNA cells ([3H]-spiperone); conditions: HEK293 EBNA cell membranes, approximately 0.7 nM [3H]-spiperone, 1 h at RT
T1 construct: expressed in transfected cells; host or cells: HEK293 EBNA cells, transient transfection; membrane preparation
T1 sequence (P14416 whole entry): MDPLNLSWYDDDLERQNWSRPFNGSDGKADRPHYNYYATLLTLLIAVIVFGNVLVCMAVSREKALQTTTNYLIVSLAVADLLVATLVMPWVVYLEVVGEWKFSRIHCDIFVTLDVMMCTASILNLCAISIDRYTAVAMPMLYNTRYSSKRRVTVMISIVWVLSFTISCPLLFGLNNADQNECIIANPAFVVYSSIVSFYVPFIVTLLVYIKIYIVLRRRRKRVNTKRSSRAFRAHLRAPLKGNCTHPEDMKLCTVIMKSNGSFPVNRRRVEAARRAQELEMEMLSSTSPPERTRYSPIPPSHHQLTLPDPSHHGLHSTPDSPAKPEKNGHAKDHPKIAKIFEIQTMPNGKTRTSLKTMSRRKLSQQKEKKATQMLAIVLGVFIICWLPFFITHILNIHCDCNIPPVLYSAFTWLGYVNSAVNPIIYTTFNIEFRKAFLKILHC
Experimental: (§1) HEK293 EBNA cells were transiently transfected with expression plasmids encoding for the human D2 or D3 or for the human 5-HT2A receptor, respectively. The cells were harvested 48 h post-transfection, washed three times with cold PBS and stored at −80° C. prior to use. The pellet was suspended in cold 50 mM Tris-HCl buffer comprising 10 mM EDTA (pH 7.4) and was homogenized with a Polytron (Kinematica A G, Basel, Switzerland) for 20-30 sec at 12.000 rpm. After centrifugation at 48.000×g for 30 min at 4° C., the pellet was resuspended in cold 10 mM Tris-HCl buffer comprising 0.1 mM EDTA (pH 7.4), homogenized, and centrifuged as above. This pellet was further resuspended in a smaller volume of ice cold 10 mM Tris-HCl buffer comprising 0.1 mM EDTA (pH 7.4) and homogenized with a Polytron for 20-30 sec at 12.000 rpm. The protein content of this homogenate was determined with the Bio-Rad (Bradford) Protein Assay (Biorad Laboratories GmbH, München, Germany) according to the instructions of the manufacturer using gamma globulin as the standard. This homogenate was stored at −80° C. in aliquots and thawed immediately prior to use.
(§2) Aliquots of membrane preparations were thawed at RT, resupended in assay buffer (D2, D3: 50 mM Tris-HCl, 120 mM NaCl, 5 mM MgCl2, 1 mM EDTA, 5 mM KCl, 1.5 mM CaCl2, pH=7.4; 5-HT2A: 50 mM Tris-HCl, 10 mM MgCl2, 1 mM EGTA, pH=7.4), homogenized with a Polytron for 20-30 sec at 12.000 rpm and adjusted to a final concentration of approximately 7.5 μg protein/well (D2, D3) and 15 μg protein/well (5-HT2A), respectively.
(§3) The binding affinity (Ki) of the compounds was determined using radioligand binding. Membranes were incubated in a total volume of 200 μl with a fixed concentration of radioligand (final concentration approximately 0.7 nM [^3H]-spiperone for D2, 0.5 nM [^3H]-spiperone for D3, and 1.1 nM [^3H]-ketanserin for 5-HT2A) and ten concentrations of test compound in ranging between 10 μM-0.1 nM for 1 h at RT. At the end of the incubation, the reaction mixtures were filtered on to unifilter 96-well white microplates with bonded GF/C filters (Packard BioScience, Zürich, Switzerland; preincubated for 1 h in 0.1% polyethylenimine (PEI) in assay buffer) with a Filtermate 196 harvester (Packard BioScience) and washed 3 times with cold assay buffer. The nonspecific binding was determined with equally composed reaction mixtures in the presence of 10 μM unlabelled spiperone. Per well 45 μl of Microscint 40 (Perkin Elmer, Schwerzenbach, Switzerland) was added, plates for sealed, shaken for 20 min and counted for 3 min on a Topcount Microplate Scintillation Counter (Can berra Packard S A, Zürich, Switzerland) with quenching correction.
(§4) The CPM value for each duplicate of a concentration of competing compound was averaged (y1), then the % specific binding was calculated according to the equation (((y1−non-specific)/(total binding−non-specific))×100). Graphs were plotted with the % specific binding using XLfit, a curve fitting program that iteratively plots the data using Levenberg-Marquardt algorithm. The single site competition analysis equation used was y=A+((B−A)/(1+((x/C)D))), where y is the % specific binding, A is the minimum y, B is the maximum y, C is the IC50, x is the log 10 of the concentration of the competing compound and D is the slope of the curve (the Hill Coefficient). […] The affinity constant (Ki) was calculated using the Cheng-Prusoff equation Ki=(IC50/1+([L]/Kd), where [L] is the concentration of radioligand and Kd is the dissociation constant of the radioligand at the receptor as determined by the saturation isotherm.

human D3 receptor = human D3 receptor (Homo sapiens, UniProt P35462); experiment: Radioligand binding to cloned human D3 receptor expressed in HEK-293 EBNA cells ([3H]-spiperone)
Sequence of human D3 receptor (P35462 whole entry): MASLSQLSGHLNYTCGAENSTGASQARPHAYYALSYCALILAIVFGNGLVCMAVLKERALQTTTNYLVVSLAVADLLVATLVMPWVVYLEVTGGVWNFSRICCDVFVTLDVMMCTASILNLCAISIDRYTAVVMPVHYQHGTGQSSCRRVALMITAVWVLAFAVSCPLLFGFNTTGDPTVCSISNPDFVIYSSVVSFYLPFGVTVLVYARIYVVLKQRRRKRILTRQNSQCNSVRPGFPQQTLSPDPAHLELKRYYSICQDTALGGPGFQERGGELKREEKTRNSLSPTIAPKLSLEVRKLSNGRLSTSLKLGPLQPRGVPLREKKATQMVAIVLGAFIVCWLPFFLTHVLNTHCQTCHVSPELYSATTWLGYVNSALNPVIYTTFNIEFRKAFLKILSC
Experimental: as §1, §2, §3, §4

human 5-HT2A receptor = human 5-HT2A receptor (Homo sapiens, UniProt P28223); experiment: Radioligand binding to cloned human 5-HT2A receptor expressed in HEK-293 EBNA cells ([3H]-ketanserin)
Sequence of human 5-HT2A receptor (P28223 whole entry): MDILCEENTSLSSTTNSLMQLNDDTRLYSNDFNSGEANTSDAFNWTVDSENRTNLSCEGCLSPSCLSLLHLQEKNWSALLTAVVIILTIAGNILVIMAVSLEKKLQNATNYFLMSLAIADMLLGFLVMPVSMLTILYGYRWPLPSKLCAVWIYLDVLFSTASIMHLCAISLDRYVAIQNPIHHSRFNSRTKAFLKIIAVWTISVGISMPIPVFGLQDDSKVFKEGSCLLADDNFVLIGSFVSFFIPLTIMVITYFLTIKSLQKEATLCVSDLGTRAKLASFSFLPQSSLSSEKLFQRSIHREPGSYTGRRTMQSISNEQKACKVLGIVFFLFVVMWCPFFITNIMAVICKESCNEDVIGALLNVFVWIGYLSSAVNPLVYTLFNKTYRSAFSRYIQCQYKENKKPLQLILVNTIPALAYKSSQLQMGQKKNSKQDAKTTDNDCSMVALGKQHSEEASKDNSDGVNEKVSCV
Experimental: as §1, §2, §3, §4

CN(C)C(=O)N[C@H]1CC[C@H](CCN2CCN(c3nccc4c3OCC4)CC2)CC1 [Example 94, trans-3-(4-{2-[4-(2,3-Dihydro-furo[2,3-c]pyridin-7-yl)-piperazin-1-yl]-ethyl}-cyclohexyl)-1,1-dimethyl-urea]
Ki (human D2 receptor): 429 nM
melting point: 217.5 °C
Ki (human D3 receptor): 82 nM
Ki (human 5-HT2A receptor): 135 nM

O=C(CC(F)(F)F)N[C@H]1CC[C@H](CCN2CCN(c3nccc4c3OCC4)CC2)CC1 [Example 33, trans-N-(4-{2-[4-(2,3-Dihydro-furo[2,3-c]pyridin-7-yl)-piperazin-1-yl]-ethyl}-cyclohexyl)-3,3,3-trifluoro-propionamide]
Ki (human D2 receptor): 276 nM
melting point: 216.5 °C
Ki (human D3 receptor): 4.29 nM
Ki (human 5-HT2A receptor): 44.2 nM

COC(CCC(=O)N[C@H]1CC[C@H](CCN2CCN(c3nccc4c3OCC4)CC2)CC1)OC [Example 63, trans-N-(4-{2-[4-(2,3-Dihydro-furo[2,3-c]pyridin-7-yl)-piperazin-1-yl]-ethyl}-cyclohexyl)-4,4-dimethoxy-butyramide]
Ki (human D2 receptor): 1920 nM
melting point: 204.5 °C
Ki (human D3 receptor): 22.1 nM
Ki (human 5-HT2A receptor): 35.3 nM

CC(=O)N[C@H]1CC[C@H](CCN2CCN(c3nccc4ccoc34)CC2)CC1 [Example 10, trans-N-{4-[2-(4-Furo[2,3-c]pyridin-7-yl-piperazin-1-yl)-ethyl]-cyclohexyl}-acetamide]
Ki (human D2 receptor): 684 nM
melting point: 157 °C
Ki (human D3 receptor): 6.44 nM
Ki (human 5-HT2A receptor): 18.8 nM

O=C(N[C@H]1CC[C@H](CCN2CCN(c3nccc4c3OCC4)CC2)CC1)C(O)C(F)(F)F (mixture of isomers) [Example 58, trans-N-(4-{2-[4-(2,3-Dihydro-furo[2,3-c]pyridin-7-yl)-piperazin-1-yl]-ethyl}-cyclohexyl)-(RS)-3,3,3-trifluoro-2-hydroxy-propionamide]
Ki (human D2 receptor): 712 nM
melting point: 185 °C
Ki (human D3 receptor): 13.9 nM
Ki (human 5-HT2A receptor): 32.9 nM

CC(C)CCC(=O)N[C@H]1CC[C@H](CCN2CCN(c3nccc4c3OCC4)CC2)CC1 [Example 42, trans-4-Methyl-pentanoic acid (4-{2-[4-(2,3-dihydro-furo[2,3-c]pyridin-7-yl)-piperazin-1-yl]-ethyl}-cyclohexyl)-amide]
Ki (human D2 receptor): 879 nM
melting point: 175 °C
Ki (human D3 receptor): 15.5 nM
Ki (human 5-HT2A receptor): 44.4 nM

O=C(N[C@H]1CC[C@H](CCN2CCN(c3nccc4c3OCC4)CC2)CC1)c1ccnc2ccccc12 [Example 39, Quinoline-4-carboxylic acid trans-(4-{2-[4-(2,3-dihydro-furo[2,3-c]pyridin-7-yl)-piperazin-1-yl]-ethyl}-cyclohexyl)-amide]
D2 Ki (human D2 receptor): inactive
melting point: 222 °C
Ki (human D3 receptor): 6.22 nM
Ki (human 5-HT2A receptor): 21.9 nM

CS(=O)(=O)c1ccc(C(=O)N[C@H]2CC[C@H](CCN3CCN(c4nccc5c4OCC5)CC3)CC2)s1 [Example 81, 5-Methanesulfonyl-thiophene-2-carboxylic acid trans-(4-{2-[4-(2,3-dihydro-furo[2,3-c]pyridin-7-yl)-piperazin-1-yl]-ethyl}-cyclohexyl)-amide]
Ki (human D2 receptor): 362 nM
melting point: 212 °C
Ki (human D3 receptor): 12.2 nM
Ki (human 5-HT2A receptor): 19 nM

O=C(N[C@H]1CC[C@H](CCN2CCN(c3nccc4c3OCC4)CC2)CC1)c1ccc2ncccc2c1 [Example 77, Quinoline-6-carboxylic acid trans-(4-{2-[4-(2,3-dihydro-furo[2,3-c]pyridin-7-yl)-piperazin-1-yl]-ethyl}-cyclohexyl)-amide]
Ki (human D2 receptor): 432 nM
melting point: 211.5 °C
Ki (human D3 receptor): 9.44 nM
Ki (human 5-HT2A receptor): 35.4 nM

COC(CC(=O)N[C@H]1CC[C@H](CCN2CCN(c3nccc4c3OCC4)CC2)CC1)OC [Example 62, trans-N-(4-{2-[4-(2,3-Dihydro-furo[2,3-c]pyridin-7-yl)-piperazin-1-yl]-ethyl}-cyclohexyl)-3,3-dimethoxy-propionamide]
Ki (human D2 receptor): 1280 nM
melting point: 218 °C
Ki (human D3 receptor): 7.22 nM
Ki (human 5-HT2A receptor): 38.2 nM

CN(C)C(=O)CCC(=O)N[C@H]1CC[C@H](CCN2CCN(c3nccc4c3OCC4)CC2)CC1 [Example 41, trans-N-(4-{2-[4-(2,3-Dihydro-furo[2,3-c]pyridin-7-yl)-piperazin-1-yl]-ethyl}-cyclohexyl)-N′,N′-dimethyl-succinamide]
Ki (human D2 receptor): 2350 nM
melting point: 177.5 °C
Ki (human D3 receptor): 33.4 nM
Ki (human 5-HT2A receptor): 63.8 nM

O=C(N[C@H]1CC[C@H](CCN2CCN(c3nccc4c3OCC4)CC2)CC1)c1ccc(Cl)cc1Cl [Example 67, trans-2,4-Dichloro-N-(4-{2-[4-(2,3-dihydro-furo[2,3-c]pyridin-7-yl)-piperazin-1-yl]-ethyl}-cyclohexyl)-benzamide]
Ki (human D2 receptor): 5050 nM
melting point: 243.5 °C
Ki (human D3 receptor): 47.2 nM
Ki (human 5-HT2A receptor): 93.3 nM

O=C(N[C@H]1CC[C@H](CCN2CCN(c3nccc4c3OCC4)CC2)CC1)c1ccc(N2CCOCC2)cc1 [Example 38, trans-N-(4-{2-[4-(2,3-Dihydro-furo[2,3-c]pyridin-7-yl)-piperazin-1-yl]-ethyl}-cyclohexyl)-4-morpholin-4-yl-benzamide]
Ki (human D2 receptor): 2280 nM
melting point: 241.5 °C
Ki (human D3 receptor): 15.5 nM
Ki (human 5-HT2A receptor): 16.6 nM

Cc1cc(CC(=O)N[C@H]2CC[C@H](CCN3CCN(c4nccc5c4OCC5)CC3)CC2)on1 [Example 43, trans-N-(4-{2-[4-(2,3-Dihydro-furo[2,3-c]pyridin-7-yl)-piperazin-1-yl]-ethyl}-cyclohexyl)-2-(3-methyl-isoxazol-5-yl)-acetamide]
Ki (human D2 receptor): 3710 nM
melting point: 222.5 °C
Ki (human D3 receptor): 2.68 nM
Ki (human 5-HT2A receptor): 41.2 nM

COC(C)CC(=O)N[C@H]1CC[C@H](CCN2CCN(c3nccc4c3OCC4)CC2)CC1 (mixture of isomers) [Example 101, trans-N-(4-{2-[4-(2,3-Dihydro-furo[2,3-c]pyridin-7-yl)-piperazin-1-yl]-ethyl}-cyclohexyl)-(RS)-3-methoxy-butyramide]
Ki (human D2 receptor): 633 nM
melting point: 168.5 °C
Ki (human D3 receptor): 8.85 nM
Ki (human 5-HT2A receptor): 55.5 nM

CCC(C)C(=O)N[C@H]1CC[C@H](CCN2CCN(c3nccc4c3OCC4)CC2)CC1 (mixture of isomers) [Example 83, trans-N-(4-{2-[4-(2,3-Dihydro-furo[2,3-c]pyridin-7-yl)-piperazin-1-yl]-ethyl}-cyclohexyl)-(RS)-2-methyl-butyramide]
Ki (human D2 receptor): 714 nM
melting point: 196.5 °C
Ki (human D3 receptor): 17.3 nM
Ki (human 5-HT2A receptor): 48.9 nM

COCC(=O)N[C@H]1CC[C@H](CCN2CCN(c3nccc4ccoc34)CC2)CC1 [Example 16, trans-N-{4-[2-(4-Furo[2,3-c]pyridin-7-yl-piperazin-1-yl)-ethyl]-cyclohexyl}-2-methoxy-acetamide]
Ki (human D2 receptor): 1230 nM
melting point: 132 °C
Ki (human D3 receptor): 17.7 nM
Ki (human 5-HT2A receptor): 9.97 nM

CC#CC(=O)N[C@H]1CC[C@H](CCN2CCN(c3nccc4c3OCC4)CC2)CC1 [Example 86, But-2-ynoic acid trans-(4-{2-[4-(2,3-dihydro-furo[2,3-c]pyridin-7-yl)-piperazin-1-yl]-ethyl}-cyclohexyl)-amide]
Ki (human D2 receptor): 434 nM
melting point: 176 °C
Ki (human D3 receptor): 7.33 nM
Ki (human 5-HT2A receptor): 38.8 nM

O=C(N[C@H]1CC[C@H](CCN2CCN(c3nccc4c3OCC4)CC2)CC1)c1ccc(-c2ccccc2)cc1 [Example 70, Biphenyl-4-carboxylic acid trans-(4-{2-[4-(2,3-dihydro-furo[2,3-c]pyridin-7-yl)-piperazin-1-yl]-ethyl}-cyclohexyl)-amide]
Ki (human D2 receptor): 556 nM
melting point: 220.5 °C
Ki (human D3 receptor): 18.4 nM
Ki (human 5-HT2A receptor): 45.6 nM

O=S(=O)(N[C@H]1CC[C@H](CCN2CCN(c3nccc4c3OCC4)CC2)CC1)c1ccccc1 [Example 99, trans-N-(4-{2-[4-(2,3-Dihydro-furo[2,3-c]pyridin-7-yl)-piperazin-1-yl]-ethyl}-cyclohexyl)-benzenesulfonamide]
Ki (human D2 receptor): 233 nM
melting point: 122.5 °C
Ki (human D3 receptor): 6 nM
Ki (human 5-HT2A receptor): 151 nM

O=C(N[C@H]1CC[C@H](CCN2CCN(c3nccc4c3OCC4)CC2)CC1)c1ccc(F)cc1 [Example 40, trans-N-(4-{2-[4-(2,3-Dihydro-furo[2,3-c]pyridin-7-yl)-piperazin-1-yl]-ethyl}-cyclohexyl)-4-fluoro-benzamide]
Ki (human D2 receptor): 1650 nM
melting point: 235.5 °C
Ki (human D3 receptor): 8.93 nM
Ki (human 5-HT2A receptor): 22.1 nM

O=C(N[C@H]1CC[C@H](CCN2CCN(c3nccc4c3OCC4)CC2)CC1)c1ccc(Cl)cc1 [Example 54, trans-4-Chloro-N-(4-{2-[4-(2,3-dihydro-furo[2,3-c]pyridin-7-yl)-piperazin-1-yl]-ethyl}-cyclohexyl)-benzamide]
Ki (human D2 receptor): 2390 nM
melting point: 251.5 °C
Ki (human D3 receptor): 12.6 nM
Ki (human 5-HT2A receptor): 66.7 nM

O=C(CCC(F)(F)F)N[C@H]1CC[C@H](CCN2CCN(c3nccc4c3OCC4)CC2)CC1 [Example 84, trans-N-(4-{2-[4-(2,3-Dihydro-furo[2,3-c]pyridin-7-yl)-piperazin-1-yl]-ethyl}-cyclohexyl)-4,4,4-trifluoro-butyramide]
Ki (human D2 receptor): 1410 nM
melting point: 204.5 °C
Ki (human D3 receptor): 14.2 nM
Ki (human 5-HT2A receptor): 112 nM

CCS(=O)(=O)N[C@H]1CC[C@H](CCN2CCN(c3nccc4c3OCC4)CC2)CC1 [Example 27, Ethanesulfonic acid trans-(4-{2-[4-(2,3-dihydro-furo[2,3-c]pyridin-7-yl)-piperazin-1-yl]-ethyl}-cyclohexyl)-amide]
Ki (human D2 receptor): 367 nM
melting point: 190 °C
Ki (human D3 receptor): 11.3 nM
Ki (human 5-HT2A receptor): 60.5 nM
